Series [1] in a line: Plasma clearance in rhesus monkey. It counts as ADME, organism-based, Macaca mulatta.
Series [2] in a line: Half life in rhesus monkey. It counts as ADME, organism-based, Macaca mulatta. Particulars: in vivo.
Series [3] deals with GABA-A receptor; anion channel. The experiment in a line: (§1) Displacement of [3H]Ro-151788 from central benzodiazepine binding site in rat administered po. It counts as functional.
Series [4] addresses GABA-A receptor; anion channel (Rattus norvegicus) (UniProt O09028+P15431+P18506+P18508+P19969+P20236+P23574+P23576+P28471+P28473+P30191+P62813+P63079+P63138+Q91ZM7+Q9ES14). The description is as §1. It counts as functional.
Series [5] is described as follows: Oral bioavailability in rhesus monkey. It counts as ADME, organism-based, Macaca mulatta. Conditions: in vivo.
The target in series [6] is T1, GABA-A receptor; alpha-3/beta-3/gamma-2 (Homo sapiens) (UniProt P18507+P28472+P34903). The experiment in a line: Efficacy against human recombinant GABAA alpha3 in combination with beta-3-gamma-2 expressed in L(tk-) cells by whole cell patch clamp method. It counts as functional, cell-based.
Series [7] has as its system Rattus norvegicus. The experiment in a line: Activity in rat elevated plus maze assay at 1 mg/kg, po. It counts as functional, organism-based. Set-up: dose 1 mg/kg.
Series [8] concerns the target T2, GABA-A receptor; alpha-3/beta-3/gamma-2 (Homo sapiens, UniProt P18507+P28472+P34903).
T2 sequence (P18507 whole entry): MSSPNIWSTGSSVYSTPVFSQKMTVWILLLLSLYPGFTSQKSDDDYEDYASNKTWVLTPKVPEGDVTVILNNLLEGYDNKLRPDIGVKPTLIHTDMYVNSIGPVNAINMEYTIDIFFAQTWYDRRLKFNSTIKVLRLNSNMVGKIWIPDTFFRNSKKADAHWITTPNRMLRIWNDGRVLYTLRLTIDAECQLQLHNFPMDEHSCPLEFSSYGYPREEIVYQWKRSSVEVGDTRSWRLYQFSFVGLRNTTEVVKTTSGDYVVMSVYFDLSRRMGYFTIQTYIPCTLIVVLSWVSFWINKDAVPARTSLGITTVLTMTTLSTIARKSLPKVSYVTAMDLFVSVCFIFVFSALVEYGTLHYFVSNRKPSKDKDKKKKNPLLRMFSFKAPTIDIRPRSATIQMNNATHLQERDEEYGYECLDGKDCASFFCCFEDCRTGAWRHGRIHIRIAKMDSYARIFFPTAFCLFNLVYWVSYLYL
T2 sequence (P28472 whole entry): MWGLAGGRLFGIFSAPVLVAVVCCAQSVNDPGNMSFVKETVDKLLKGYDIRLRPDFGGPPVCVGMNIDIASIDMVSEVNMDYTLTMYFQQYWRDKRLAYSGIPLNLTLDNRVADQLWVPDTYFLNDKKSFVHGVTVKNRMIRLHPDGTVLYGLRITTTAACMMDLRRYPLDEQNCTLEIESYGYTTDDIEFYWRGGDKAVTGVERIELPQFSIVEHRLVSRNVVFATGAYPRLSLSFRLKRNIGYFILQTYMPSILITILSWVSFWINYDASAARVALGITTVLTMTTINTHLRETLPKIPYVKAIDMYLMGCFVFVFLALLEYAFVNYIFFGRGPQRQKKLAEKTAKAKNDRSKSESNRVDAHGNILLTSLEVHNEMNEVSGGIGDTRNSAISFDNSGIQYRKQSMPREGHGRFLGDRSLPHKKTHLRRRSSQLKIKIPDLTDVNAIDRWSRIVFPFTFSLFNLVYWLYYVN
T2 sequence (P34903 whole entry): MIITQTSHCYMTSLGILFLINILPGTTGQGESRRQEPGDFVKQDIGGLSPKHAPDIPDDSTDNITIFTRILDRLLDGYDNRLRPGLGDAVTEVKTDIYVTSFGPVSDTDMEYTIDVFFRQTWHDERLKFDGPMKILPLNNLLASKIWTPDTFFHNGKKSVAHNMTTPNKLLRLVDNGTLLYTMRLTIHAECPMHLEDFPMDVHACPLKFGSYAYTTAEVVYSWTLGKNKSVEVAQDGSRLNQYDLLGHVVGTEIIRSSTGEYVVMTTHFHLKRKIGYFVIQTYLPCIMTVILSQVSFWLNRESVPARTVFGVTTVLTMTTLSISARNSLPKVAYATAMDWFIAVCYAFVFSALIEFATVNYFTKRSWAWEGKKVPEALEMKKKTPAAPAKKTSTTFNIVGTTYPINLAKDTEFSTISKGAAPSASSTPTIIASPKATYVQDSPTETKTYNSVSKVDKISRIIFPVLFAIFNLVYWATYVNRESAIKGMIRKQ
The experiment in a line: Displacement of [3H]Ro-151788 from human recombinant GABAA alpha3 in combination with beta3gamma2 expressed in L(tk-) cells. The class given is cell-based. (Loss of bound radioactivity is the signal in a displacement assay; it reports binding, not function.)

For series [9], the system named is Rattus norvegicus. The experiment in a line: Activity in rat elevated plus maze assay at 3 mg/kg, po. The class given is functional, organism-based. Set-up: dose 3 mg/kg.
Series [10] addresses GABA-A receptor; alpha-5/beta-3/gamma-2 (Homo sapiens) (UniProt P18507+P28472+P31644). The experiment in a line: Efficacy against human recombinant GABAA alpha-5-beta-3-gamma-2 expressed in L(tk-) cells by whole cell patch clamp method relative to chlordiazepoxide. It counts as functional, cell-based. A general note: The patch-clamp technique gives a direct electrical read-out from membranes.

Series [11] has as its target T3, GABA-A receptor; alpha-2/beta-3/gamma-2 (Homo sapiens) (UniProt P18507+P28472+P47869). The experiment in a line: Efficacy against human recombinant GABAA alpha-2-beta-3-gamma-2 expressed in L(tk-) cells by whole cell patch clamp method. It counts as cell-based.
The target in series [12] is T1, GABA-A receptor; alpha-3/beta-3/gamma-2 (Homo sapiens). The experiment in a line: Efficacy against human recombinant GABAA alpha-3-beta-3-gamma-2 expressed in L(tk-) cells by whole cell patch clamp method relative to chlordiazepoxide. The class given is functional, cell-based.
Series [13] concerns the target T3, GABA-A receptor; alpha-2/beta-3/gamma-2 (Homo sapiens). The experiment in a line: Efficacy against human recombinant GABAA alpha-2-beta-3-gamma-2 expressed in L(tk-) cells by whole cell patch clamp method relative to chlordiazepoxide. The class given is functional, cell-based.
Series [14] addresses GABA-A receptor; alpha-1/beta-3/gamma-2 (Homo sapiens) (UniProt P14867+P18507+P28472). The experiment in a line: Efficacy against human recombinant GABAA alpha-1-beta-3-gamma-2 expressed in L(tk-) cells by whole cell patch clamp method relative to chlordiazepoxide. The class given is functional, cell-based.

Active and inactive are the calls of the source. The calls are words filed in the database; no cut-off is given here.

The molecule `N#Cc1cc(F)ccc1-c1cc(-c2cnc3nc(C(F)(F)F)ccn23)ccc1F` displayed a clearance in series [1] of 3 mL/min/kg. Further, the half-life in series [2] is 13.4 h. In series [3], this molecule had a concentration giving a half-maximal response (EC50) of 19 nM. In series [4], this molecule showed an ID50 of 0.27 mg/kg. The molecule also registered a bioavailability in series [5] of 49%. For the same molecule, in series [6], the Efficacy was determined as 25%. The outcome with Rattus norvegicus [7] was Active. In addition, the Ki in series [8] is 0.73 nM.
As for `CC(C)(O)c1ccn2c(-c3ccc(F)c(-c4cccnc4)c3)cnc2n1`, the result with Rattus norvegicus [9] was Active. Besides, the Efficacy in series [10] was determined as 18%; in series [11], 48%; in series [12], 54%; in [13], 39%; in series [14], 5%; in series [6], 57%. In addition, the concentration for a half-maximal effect (EC50) in [3] was 580 nM. This molecule returned an ID50 in series [4] of 0.84 mg/kg. In addition, in [8], the inhibitory constant (Ki) is 4 nM.

The term clearance denotes a measure of how efficiently the substance is removed, as volume per time. Broadly, the half-life is how long it takes for the measured level to halve. As a reminder, the EC50 is the midpoint of the concentration-response curve. One may read the bioavailability as the share of a dose that reaches the circulation, judged against a reference dose that is usually intravenous. As a reminder, the Ki is a dissociation constant, usually derived from enzyme kinetics or from competition with a known ligand.

Values taken from ChEMBL document CHEMBL1148587, “Imidazo[1,2-a]pyrimidines as functionally selective and orally bioavailable GABA(A)alpha2/alpha3 binding site agonists for the treatment of anxiety disorders” (J Med Chem, 2006).
